Test results published in article PMC10866072, “Design, synthesis, molecular modelling and biological evaluation of novel 6-amino-5-cyano-2-thiopyrimidine derivatives as potent anticancer agents against leukemia and apoptotic inducers” (Journal of Enzyme Inhibition and Medicinal Chemistry, 2024).

How the values were obtained:
CCRF-CEM = type: cell-based; details: Homo sapiens, one dose 10^-5 M, 48 h
HL-60(TB) = type: cell-based; details: Homo sapiens, one dose 10^-5 M, 48 h
K-562 = type: cell-based; details: Homo sapiens, K562, one dose 10^-5 M, 48 h
MOLT-4 = type: cell-based; details: Homo sapiens, one dose 10^-5 M, 48 h, read-out: % growth
RPMI-8226 = type: cell-based; details: Homo sapiens, one dose 10^-5 M, 48 h
SR = type: cell-based; details: Homo sapiens, one dose 10^-5 M, 48 h
A549/ATCC = type: cell-based; details: Homo sapiens, one dose 10^-5 M, 48 h
EKVX = type: cell-based; details: Homo sapiens, one dose 10^-5 M, 48 h
HOP-62 = type: cell-based; details: Homo sapiens, one dose 10^-5 M, 48 h
HOP-92 = type: cell-based; details: Homo sapiens, one dose 10^-5 M, 48 h
NCI-H226 = type: cell-based; details: Homo sapiens, one dose 10^-5 M, 48 h
NCI-H23 = type: cell-based; details: Homo sapiens, one dose 10^-5 M, 48 h, read-out: % growth
NCI-H460 = type: cell-based; details: Homo sapiens, one dose 10^-5 M, 48 h, read-out: % growth
NCI-H522 = type: cell-based; details: Homo sapiens, one dose 10^-5 M, 48 h
COLO 205 = type: cell-based; details: Homo sapiens, one dose 10^-5 M, 48 h
HCC-2998 = type: cell-based; details: Homo sapiens, one dose 10^-5 M, 48 h
HCT-116 = type: cell-based; details: Homo sapiens, one dose 10^-5 M, 48 h, read-out: % growth
HCT-15 = type: cell-based; details: Homo sapiens, one dose 10^-5 M, 48 h, read-out: % growth
HT29 = type: cell-based; details: Homo sapiens, HT-29, one dose 10^-5 M, 48 h
KM12 = type: cell-based; details: Homo sapiens, one dose 10^-5 M, 48 h
SW-620 = type: cell-based; details: Homo sapiens, one dose 10^-5 M, 48 h
SF-268 = type: cell-based; details: Homo sapiens, one dose 10^-5 M, 48 h, read-out: % growth
SF-295 = type: cell-based; details: Homo sapiens, one dose 10^-5 M, 48 h
SF-539 = type: cell-based; details: Homo sapiens, one dose 10^-5 M, 48 h
SNB-19 = type: cell-based; details: Homo sapiens, one dose 10^-5 M, 48 h, read-out: % growth
SNB-75 = type: cell-based; details: Homo sapiens, one dose 10^-5 M, 48 h
U251 = type: cell-based; details: Homo sapiens, U-251, one dose 10^-5 M, 48 h
LOX IMVI = type: cell-based; details: Homo sapiens, one dose 10^-5 M, 48 h, read-out: % growth
MALME-3M = type: cell-based; details: Homo sapiens, one dose 10^-5 M, 48 h
M14 = type: cell-based; details: Homo sapiens, one dose 10^-5 M, 48 h
MDA-MB-435 = type: cell-based; details: Homo sapiens, one dose 10^-5 M, 48 h, read-out: % growth
SK-MEL-2 = type: cell-based; details: Homo sapiens, one dose 10^-5 M, 48 h
SK-MEL-28 = type: cell-based; details: Homo sapiens, one dose 10^-5 M, 48 h
SK-MEL-5 = type: cell-based; details: Homo sapiens, one dose 10^-5 M, 48 h, read-out: % growth
UACC-257 = type: cell-based; details: Homo sapiens, one dose 10^-5 M, 48 h
UACC-62 = type: cell-based; details: Homo sapiens, one dose 10^-5 M, 48 h
IGROV1 = type: cell-based; details: Homo sapiens, IGROV-1, one dose 10^-5 M, 48 h, read-out: % growth
OVCAR-3 = type: cell-based; details: Homo sapiens, one dose 10^-5 M, 48 h
OVCAR-4 = type: cell-based; details: Homo sapiens, one dose 10^-5 M, 48 h
OVCAR-5 = type: cell-based; details: Homo sapiens, one dose 10^-5 M, 48 h
OVCAR-8 = type: cell-based; details: Homo sapiens, one dose 10^-5 M, 48 h
NCI/ADR-RES = type: cell-based; details: Homo sapiens, one dose 10^-5 M, 48 h
SK-OV-3 = type: cell-based; details: Homo sapiens, one dose 10^-5 M, 48 h
786-0 = type: cell-based; details: Homo sapiens, one dose 10^-5 M, 48 h
A498 = type: cell-based; details: Homo sapiens, one dose 10^-5 M, 48 h
ACHN = type: cell-based; details: Homo sapiens, one dose 10^-5 M, 48 h
CAKI-1 = type: cell-based; details: Homo sapiens, CAKI-1, 48 h, one dose 10^-5 M, 48 h
SN12C = type: cell-based, human; details: Homo sapiens, one dose 10^-5 M, 48 h
TK-10 = type: cell-based; details: Homo sapiens, one dose 10^-5 M, 48 h
UO-31 = type: cell-based; details: Homo sapiens, UO-31, 48 h, one dose 10^-5 M, 48 h
PC-3 = type: cell-based; details: Homo sapiens, one dose 10^-5 M, 48 h
DU-145 = type: cell-based; details: Homo sapiens, one dose 10^-5 M, 48 h
MCF7 = type: cell-based; details: Homo sapiens, one dose 10^-5 M, 48 h, read-out: % growth
MDA-MB-231/ATCC = type: cell-based; details: Homo sapiens, one dose 10^-5 M, 48 h
HS 578T = type: cell-based; details: Homo sapiens; one dose 10^-5 M, 48 h; HS 578T; read-out: % growth
BT-549 = type: cell-based; details: Homo sapiens, one dose 10^-5 M, 48 h
T-47D = type: cell-based; details: Homo sapiens, T47D, one dose 10^-5 M, 48 h, read-out: % growth
MDA-MB-468 = type: cell-based; details: Homo sapiens, one dose 10^-5 M, 48 h
[1] = test system: full NCI 60 cell lines panel

CN(C)c1ccc(-c2nc(S)nc(N)c2C(=N)NN=Cc2ccc(Cl)cc2Cl)cc1 [Compound 4f, 4-amino-N'-[(2,4-dichlorophenyl)methylene]-6-[4-(dimethylamino)phenyl]-2-mercapto pyrimidine-5-carboximidohydrazide]
% cell growth at 10 µM (CCRF-CEM): 83.7% | % growth at 10 µM (HL-60(TB)): 88.4% | % growth at 10 µM (K-562): 70.2% | activity at 10 µM (MOLT-4): 100% | % growth at 10 µM (RPMI-8226): 80.6% | percent cell growth at 10 µM (SR): 73.2% | % growth at 10 µM (A549/ATCC): 107% | % cell growth at 10 µM (EKVX): 102% | % growth at 10 µM (HOP-62): 103% | % growth at 10 µM (HOP-92): 106% | % growth at 10 µM (NCI-H226): 95.5% | activity at 10 µM (NCI-H23): 99.6% | activity at 10 µM (NCI-H460): 116% | % growth at 10 µM (NCI-H522): 97.2% | % growth at 10 µM (COLO 205): 166% | % growth at 10 µM (HCC-2998): 115% | activity at 10 µM (HCT-116): 67.7% | activity at 10 µM (HCT-15): 76.7% | % growth at 10 µM (HT29): 107% | % growth at 10 µM (KM12): 77.5% | % growth at 10 µM (SW-620): 100% | activity at 10 µM (SF-268): 100% | % cell growth at 10 µM (SF-295): 92.7% | % growth at 10 µM (SF-539): 81.6% | activity at 10 µM (SNB-19): 90.4% | % growth at 10 µM (SNB-75): 109% | % growth at 10 µM (U251): 93.2% | activity at 10 µM (LOX IMVI): 83.3% | % growth at 10 µM (MALME-3M): 96.8% | % growth at 10 µM (M14): 103% | activity at 10 µM (MDA-MB-435): 91.8% | % growth at 10 µM (SK-MEL-2): 108% | % cell growth at 10 µM (SK-MEL-28): 104% | activity at 10 µM (SK-MEL-5): 99.3% | percent cell growth at 10 µM (UACC-257): 109% | % growth at 10 µM (UACC-62): 92.3% | activity at 10 µM (IGROV1): 102% | % growth at 10 µM (OVCAR-3): 110% | % growth at 10 µM (OVCAR-4): 104% | percent cell growth at 10 µM (OVCAR-5): 107% | % growth of cells at 10 µM (OVCAR-8): 106% | cell growth percent at 10 µM (NCI/ADR-RES): 101% | % growth at 10 µM (SK-OV-3): 125% | % growth at 10 µM (786-0): 84.9% | % growth at 10 µM (A498): 114% | % growth at 10 µM (ACHN): 107% | % growth at 10 µM (CAKI-1): 102% | % growth at 10 µM (SN12C): 93.7% | % cell growth at 10 µM (TK-10): 114% | % cell growth at 10 µM (UO-31): 70.2% | percent cell growth at 10 µM (PC-3): 89.8% | % growth at 10 µM (DU-145): 111% | activity at 10 µM (MCF7): 75.3% | % growth at 10 µM (MDA-MB-231/ATCC): 99.5% | activity at 10 µM (HS 578T): 96.8% | % cell growth at 10 µM (BT-549): 119% | activity at 10 µM (T-47D): 104% | percent cell growth at 10 µM (MDA-MB-468): 113% | activity at 10 µM ([1]; Homo sapiens, 60 cell, 48 h, read-out: Mean % growth): 98.9% | activity on all 60 cancer cell lines tested (in words) ([1]; one dose): weak activity
